Test results reported in a melting point compilation (Tetko et al.; mined from patent text by program, amines drawn as free bases though some values may be those of a salt).

Compared with Cc1cc(C)c2[nH]c(C(=O)NC(N)=S)cc2c1, Cc1ccc(C(=S)c2c(C)cc(Cc3ccc(N)cc3F)n2C)cc1 is lower in melting point: 220 to 223 °C for the first, 199 to 200 °C for the second.

Compared with CC(C)(C)c1cc(C2CCC3SC2CCC3c2cc(C(C)(C)C)c(O)c(C(C)(C)C)c2)cc(C(C)(C)C)c1O (centres undefined), CC(C)(C)NC(=O)c1nn(-c2ccc(Cl)cc2)c2c1C1CCC2CC1 is lower in melting point: 247 to 250 °C for the first, 198 to 200 °C for the second.

Compared with Cc1onc(-c2ccccc2)c1-c1ccc(S(=O)(=O)NC(=O)CN)cc1, O=C(O)CCNS(=O)(=O)c1ccc(N2CCC(c3ccccc3)CC2)cc1 is lower in melting point: 231 to 235 °C for the first, 145 to 147 °C for the second.

Compared with CC(C)(C)OC(=O)NC(Cc1ccccc1)C(O)CNCC(O)C(Cc1ccccc1)NC(=O)OC(C)(C)CCCNCc1ccccc1 (centres undefined), CCC(C)(C)OC(=O)NC(C)(Cc1c[nH]c2ccccc12)C(=O)NCCc1cccnc1 (centres undefined) is lower in melting point: 128 to 132 °C for the first, 95 to 105 °C for the second.

First: CCCCn1c(=O)c2c(NC)n[nH]c2n(CCOCc2ccccc2)c1=O
Second: COc1ccc(-n2c(=O)c3c(N4CCN(C)CC4)cc(Cl)cc3n(Cc3ccccc3)c2=O)cc1
The melting point of the first is higher: 214 to 216 °C for the first, 155 to 158 °C for the second.

COc1ccnc(CSc2nc3c(C)c(OC(F)F)c(C)cc3[nH]2)c1C and O=c1[nH]ncc2[nH]c(-c3ccc(OC(F)F)c(OC4CC4)c3)c(CO)c12 fall in the same range of melting point: 190 to 191 °C for the first, 190 to 191 °C for the second.

First: Cc1cc(OCC(F)(F)F)c(N)c(OCC(F)(F)F)n1
Second: CCc1c(Oc2ccc(C(F)(F)F)cc2[N+](=O)[O-])n[nH]c1C
The melting point of the first is lower: 53.5 to 53.8 °C for the first, 92 to 93 °C for the second.

Compared with COc1ccc(C(=O)N2CCCC2=O)cc1OC(=O)c1ccccc1, CN(C)C1CCCN(C(=O)c2ccc([N+](=O)[O-])cc2)c2ccccc21 (centres undefined) is higher in melting point: 90.5 to 91 °C for the first, 139 to 142 °C for the second.

First: CNC(=O)C(Cc1ccc(OC)cc1)NC(=O)C(C)(CC(C)C)c1ccc(Cl)cc1S (centres undefined)
Second: CC(C)NC(=O)c1c(I)cccc1C(=O)Nc1ccc(OCC(F)(F)F)nc1
The melting point of the first is lower: 174 to 178 °C for the first, 220 to 225 °C for the second.

First: ON=Cc1cccc2cccc(N3CCCC3)c12
Second: S=C(Nc1c(Cl)cccc1Cl)N1CCN(c2cnccn2)CC1
The melting point of the first is lower: 187 to 188 °C for the first, 225 to 227 °C for the second.

Compared with O=C(O)C1=Cc2cc(Cl)c(-c3ccccc3)cc2OC1C(F)(F)F (centres undefined), CCc1cc(Cl)cc2c1OC(C(F)(F)F)C(C(=O)O)=C2 (centres undefined) is higher in melting point: 185 to 188 °C for the first, 197 to 199 °C for the second.

First: CCOC(=O)c1nc(C(=O)OCC)nc(C(=O)OCC)n1
Second: CCOC(=O)c1c(NC(=O)NC(C)C)sc(C)c1C
The melting point of the first is higher: 169 to 170 °C for the first, 135 °C for the second.

First: Cn1c2cc[nH]c(=O)c2c2cccc(F)c21
Second: Cc1cc(=O)n2nc(SCc3ccc(Cl)cc3)sc2n1
The melting point of the first is higher: 294 to 296 °C for the first, 138 to 140 °C for the second.

First: COc1ccc(N2CCOCC2)c2sc(C(=O)NCC(=O)c3ccsc3)nc12
Second: CC(C)(C)OC(=O)Nc1ccc2nc(N3CCOCC3)nn2c1
The melting point of the first is higher: 170 °C for the first, 166 °C for the second.

Compared with COc1ccc(-c2cnc(N)c(Sc3ccc(C)cc3)n2)cc1, COc1ccc(-c2nc(Cl)cc(Cl)n2)cc1 is higher in melting point: 107 to 110 °C for the first, 127 to 128 °C for the second.

First: O=C(NC1CCCCC1)NS(=O)(=O)c1cnccc1NC1CCCCCC1
Second: CCCc1nn(-c2ccc(C(F)(F)F)cn2)cc1CCCOc1nn(C2CCCCC2)cc1CC(=O)O
The melting point of the first is higher: 165 to 169 °C for the first, 127 to 128 °C for the second.

First: CN1CCN(c2nc3c(c(N4CCOCC4)n2)SCCC3)CC1
Second: COc1cc2nc(N3CCN(C(=O)CCCO)CC3)nc(N)c2cc1OC
The melting point of the first is lower: 100 °C for the first, 241 to 243 °C for the second.

Compared with COCCNC(=O)c1ccc(N2CCC(N3C(=O)OCc4ccccc43)CC2)c([N+](=O)[O-])c1, Cc1ccc(Nc2ccccc2C(=O)O)c([N+](=O)[O-])c1 is higher in melting point: 192 to 193 °C for the first, 209 to 213 °C for the second.

Compared with CN(N)c1cc(Cl)ncn1, CC(C)S(=O)c1cnc(Cl)c(Cl)c1 (centres undefined) is lower in melting point: 182 to 185 °C for the first, 62 to 64 °C for the second.

Compared with CSc1ccc(Cl)c(C(=O)NCC23CC4CC(CC(C4)C2)C3)c1, O=C(Nc1nnc(SCC(=O)C23CC4CC(CC(C4)C2)C3)s1)C1CC1 is higher in melting point: 126 to 127 °C for the first, 218 to 219 °C for the second.

First: Nc1ccc(C(=O)c2ccccc2)c(Cl)c1
Second: Cn1cc(-c2ccccc2)c(=O)c(-c2ccc(Cl)c(Cl)c2)c1
The melting point of the first is lower: 120 to 130 °C for the first, 166 °C for the second.

Compared with Cc1cccc(COc2cccc(OCc3ccc(-c4ccccc4)cn3)c2)c1C(=O)O, O=c1oc(-c2ccccc2)cc(O)c1CCCc1ccccc1 is higher in melting point: 80 to 83 °C for the first, 195 to 196 °C for the second.

Compared with CN1C(=O)[C@@H](NC(=O)OC(C)(C)C)CSc2ccccc21, C[C@H]1Cn2c(=O)[nH]c3c(Br)ccc(c32)CN1C(=O)OC(C)(C)C is higher in melting point: 116 to 120 °C for the first, 229 °C for the second.

First: COC(=O)c1ccc(NC(=O)CC(=O)C(C)C)cc1
Second: NCCC(=O)Nc1ccc(Nc2ccccc2)cc1
The melting point of the first is lower: 54 to 56 °C for the first, 108 to 110 °C for the second.

Compared with CS(=O)(=O)N1CCN([C@@H](CNS(=O)(=O)c2ccc(OCc3ccnc4ccccc34)cc2)C(=O)NO)CC1, Cc1ccc(S(=O)(=O)N2CCN(C(c3ccccc3)c3ccc(Cl)cc3)CC2)cc1 (single isomer, unassigned; (+)) is lower in melting point: 180 °C for the first, 171 °C for the second.

Compared with CC[C@H](C)[C@H](NC(=O)/C=C1/c2ccccc2C(=S)N[C@H]1[C@@H](C)CC)C(=O)N[C@H](C(=O)OC)[C@@H](C)CC, COC(=O)C(CSc1ccccc1)N1CC(NC(=O)C(=NO)c2ccccc2)C1=O (centres undefined) is lower in melting point: 178 to 181 °C for the first, 163 to 169 °C for the second.

First: Cn1ncnc1COc1nn2c(-c3ccccc3F)nncc2c1I
Second: Cc1ncc2c(n1)-c1ccc(Cl)cc1C(c1ccccc1Cl)=NC2
The melting point of the first is higher: 218 to 219 °C for the first, 193 to 197 °C for the second.

First: O=C(NN=Cc1ccc(C(F)(F)F)cc1)c1ccc(O)cc1
Second: Nc1c(Nc2ccc(O)cc2)ncnc1-c1ccc(C(F)(F)F)cc1F
The melting point of the first is higher: 260 °C for the first, 194 to 196 °C for the second.

First: NC(=O)CCn1c(-c2ccc(Cl)cc2)nc2cccnc21
Second: Nc1ncc(-c2ccc(=O)[nH]n2)c(-c2cccnc2)n1
The melting point of the first is lower: 248 to 250 °C for the first, 256 °C for the second.

First: C(#COCC1CCN(Cc2ccccc2)CC1)Cc1ccccc1
Second: CN1CCC(Oc2ccccc2[N+](=O)[O-])(c2ccccc2)CC1
The melting point of the first is higher: 120 to 123 °C for the first, 80 to 82 °C for the second.

First: Cn1c([N+](=O)[O-])cnc1-c1cc(C(N)=O)on1
Second: CCC(C)(C)c1ccc(O)c(C(=O)Nc2ccc([N+](=O)[O-])cc2C)c1
The melting point of the first is higher: 235 to 238 °C for the first, 150 to 151 °C for the second.

Compared with Cc1nc(-n2ccc(NC(=O)c3ccccc3)cc2=O)sc1C(=O)NCc1ccccc1, Cc1nc(-c2ccccc2)nc(NCC(=O)N(C)c2ccccc2)c1Cl is lower in melting point: 246 to 248 °C for the first, 154 to 155 °C for the second.

First: O=S(=O)(c1ccc(Cl)cc1)c1c(-c2ccc(Cl)cc2)[nH]c(C(F)(F)F)c1Br
Second: CC(C)(c1cc(F)ccc1F)S(=O)(=O)c1ccc(Cl)cc1
The melting point of the first is higher: greater than 230 °C for the first, 147 to 148 °C for the second.

First: Cc1ccc(S(=O)(=O)Nc2ccc([N+](=O)[O-])cc2Cl)cc1
Second: O=C(O)Cc1ccc(OCCNC(=O)C2Cc3ccccc3N2S(=O)(=O)c2ccc(-c3cc(C(F)(F)F)ccc3Cl)cc2)c(F)c1 (centres undefined)
The melting point of the first is higher: 167 to 168 °C for the first, 100 °C for the second.

First: CC(Oc1ncn(-c2ccc(Cl)c(Cl)c2)n1)C(=O)O (centres undefined)
Second: FC(F)(F)Oc1ccc(Cn2cnc3c(Cl)ncnc32)cc1
The melting point of the first is higher: 222 to 224 °C for the first, 115 to 116 °C for the second.

First: C[C@@H](O)[C@H](NC(=O)c1ccc(F)c(Br)c1)C(=O)NO
Second: COc1cc(CO)ccc1NC(C)=O
The melting point of the first is higher: 152 to 153 °C for the first, 104 °C for the second.

First: COc1cc2ccccc2cc1N(C)C(=O)N1CCN(c2cc(Cl)cc(Cl)c2)CC1
Second: CCCOc1cc2c(cc1OCCC)CCC(C(=O)N1CCN(C(=O)c3cc(OC)c(OC)c(OC)c3)CC1)=C2
The melting point of the first is higher: 165 to 167 °C for the first, 124 to 126 °C for the second.

First: Cc1c(-c2ccncc2)oc2c1C(=O)CCC2
Second: C=CCc1c(N)ccc2c(=O)cc(C(=O)OCC)oc12
The melting point of the first is lower: 136 to 138 °C for the first, 142 to 143 °C for the second.

First: CCNC(=NC#N)NCC(=O)N(C)c1ccc(Cl)c(COc2cccn3c(Br)c(C)nc23)c1Cl
Second: CNC(=O)Cc1c(-c2cc(C)sc2C)nc2sc3ccccc3n12
The melting point of the first is higher: greater than 250 °C for the first, 238 to 239 °C for the second.

Compared with OCCNCCOc1ccc2cc3ccc(OCCNCCO)cc3nc2c1, CCCCCCCCCCCCCCOc1cc(OCCCOc2ccc(O)cc2)cc(C(=O)O)c1 is lower in melting point: 125 to 127 °C for the first, 91 to 93 °C for the second.

First: O=C1C2C(C(=O)N1Cc1ccccc1)C2[N+](=O)[O-] (centres undefined)
Second: c1ccc(C2CN=C3NCCN32)cc1 (centres undefined)
The melting point of the first is lower: 108 to 109 °C for the first, 167 to 170 °C for the second.

First: O=C1NCC(Cn2cncn2)(c2ccc(Cl)cc2Cl)O1 (centres undefined)
Second: COC(C(=Cc1ccc(Cl)cc1)n1cncn1)C(C)(C)C (centres undefined)
The melting point of the first is higher: 223 °C for the first, 63 to 66 °C for the second.

Compared with CC1=C(C(=O)OCCOc2ccccc2)C(c2ccccc2C(F)(F)F)c2c(ccnc2OCC(C)C)N1 (centres undefined), Cc1oc(-c2ccc3ccccc3c2)nc1COc1ccc(CCCCC2OC(=O)NC2=O)cc1 (centres undefined) is higher in melting point: 108 to 109 °C for the first, 163 to 164 °C for the second.

First: CC(C)CC1(Cn2cnc3ccccc32)Sc2[nH]c(=O)n(C)c(=O)c2C1Sc1cccs1 (centres undefined)
Second: O=C1NC(=O)C(Cc2ccc(OCCN3CCc4ccccc43)cc2)S1 (centres undefined)
The melting point of the first is higher: 198 °C for the first, 133 to 136 °C for the second.

First: CC(C)(C)OC(=O)N1CCn2c(c(C(N)=O)c(Br)c2C2CC2)C1
Second: O=C(O)c1cn(C2CC2)c2cc(Cl)c(F)c(Cl)c2c1=O
The melting point of the first is lower: 162 °C for the first, 277 to 278 °C for the second.

First: CCCCCCCCCCCCCCCCCC(=O)Nc1cccc(N(CC(=O)OC)CC(=O)OC)c1
Second: CCCC(=O)c1cc(C(=O)C(=O)OC(=O)C(=O)c2cc(C(=O)CCC)c(C)cc2N)c(N)cc1C
The melting point of the first is lower: 78 to 79 °C for the first, 224 to 226 °C for the second.

Compared with CCN1c2ncc(CCc3cccc(N)c3)cc2C(=O)N(C)c2ccc(Cl)nc21, COc1ccc(-c2nc(N3CCNCC3)c3c(C)c(C#N)sc3n2)cc1 is higher in melting point: 121 to 123 °C for the first, 210 to 212 °C for the second.

First: CCCC(=O)NC1=CC(=O)c2ccc(C=O)nc2C1=O
Second: CCn1c(=O)c(C(=O)NC)c(O)c2ccc(C)nc21
The melting point of the first is higher: 208 to 210 °C for the first, 150 to 154 °C for the second.

First: CC(=O)OCC1OC(n2cc(C)c(NO)nc2=O)CC1F (centres undefined)
Second: CNC(=N[N+](=O)[O-])NCc1cnc(Br)s1
The melting point of the first is higher: 180 to 181 °C for the first, 170 °C for the second.

With Cc1c(S(C)=O)c(C=NO)nn1-c1c(Cl)cc(C(F)(F)F)cc1Cl (centres undefined) the melting point was 210 to 214 °C.
